Test results reported in patent US9050353B2, “Use of icariin and epimedium flavonoids containing icariin to treat diseases associated with myelin sheath lesion” (Xuanwu Hospital of Capital Medical University, priority 2010, dated 2015).

How the values were obtained:
Type in all cases: in vivo
[1] = tested on: inflammatory cell infiltration of spinal cord lumbar intumescentia in EAE rat model; assay: Inflammatory cell infiltration of spinal cord lumbar intumescentia, HE staining, EAE rats; details: positive control drug, dose not given, scale 0-4
Protocol: Preparation of rat model and administration: experimental autoimmune encephalomyelitis (EAE) model is an important tool for studying various human demyelinating diseases of nervous system. In the example, the preparation of EAE rat model was performed by multipoint immunizing female Lewis rats subcutaneously at tail root with a homogenate of spinal cord and cerebral gray matter of Guinea pig as well as complete Freund's adjuvant after emulsification. They were intragastrically administered with Epimedium flavanoids for 3 weeks. […]
Experimental method: the rats were anesthetized with 10% chloral hydrate on the 14th day of experiment, fixed by perfusion of 4% paraformaldehyde, spinal cord tissues were taken for making paraffin sections, section thickness 4 μm. (1) Stained with LFB, observed under microscope, and scored according to the following standard: 0 score, absence of myelinoclasis; 1 score, one small range of myelinoclasis; 2 score, 2 or 3 small ranges of myelinoclasis; 3 score, 1 to 2 large ranges of myelinoclasis; 4 score, large ranges of myelinoclasis accumulatively existing in 20% or more of white matter regions. […]

[2] = tested on: TNF-α; assay: TNF-α content of cerebral cortex by ELISA, EAE rats; details: positive control drug, dose not given
Protocol: (§1) Preparation of rat model and administration: experimental autoimmune encephalomyelitis (EAE) model is an important tool for studying various human demyelinating diseases of nervous system. In the example, the preparation of EAE rat model was performed by multipoint immunizing female Lewis rats subcutaneously at tail root with a homogenate of spinal cord and cerebral gray matter of Guinea pig as well as complete Freund's adjuvant after emulsification. They were intragastrically administered with Epimedium flavanoids for 3 weeks.
Experimental objective: tumor necrosis factor α (TNF-α) is an important inflammatory cytokines, and has promoting effects on inflammatory reactions. This experiment used enzyme linked immunosorbent assay (ELISA) to measure TNF-α content of cerebral cortex in EAE rat model, and observe the effects of Epimedium flavanoids on the content.
Experimental method: rats were anesthetized and sacrificed, fresh brain tissues were was taken, processed to form cerebral cortex homogenate. The operation was performed strictly according to the steps of specification of ELISA kit. Optical density was measured with ELISA at 450 nm. The corresponding TNF-α content was calculated with the measured OD values on standard curve.

[3] = tested on: myeloid tissue myelinoclasis in EAE mice model; assay: Myelinoclasis of myeloid tissue, LFB staining, EAE mice; details: positive control drug, dose not given, scale 0-4
Protocol: (§2) Preparation of mice model and administration: experimental autoimmune encephalomyelitis (EAE) mice model is an important tool for studying various human demyelinating diseases of nervous system. In the present experiment, the preparation of EAE mice model was performed by immunizing female C57BL/6J mice with myelin sheath oligodendroglial cell surface glycoprotein MOG35-55. That is, the mice were subcutaneously injected at dorsal part of spinal column with 0.2 mL of MOG35-55 antigen elixir, and 0.2 ml of bordetella pertussis solution was intraperitoneally injected at the time of immunization injection and 48 h thereafter, respectively. Icariin was intragastrically administered after the last injection of bordetella pertussis solution, for consecutive 3 weeks.
Experimental objective: the myelinoclasis of myeloid tissue of EAE model mice were assayed by Luxol Fast Blue (LFB) staining, and the intervention effects of icariin on this pathological change were studied.
Experimental method: the mice were anesthetized with 10% chloral hydrate on the 29th day of experiment, fixed by perfusion of 4% paraformaldehyde, myeloid tissues were taken for making paraffin sections, section thickness […]. Stained with LFB, observed under microscope, and scored according to the following standard: 0 score, absence of myelinoclasis; 1 score, one small range of myelinoclasis; 2 score, 2 or 3 small ranges of myelinoclasis; 3 score, 1 to 2 large ranges of myelinoclasis; 4 score, large ranges of myelinoclasis accumulatively existing in 20% or more of white matter regions.

[4] = tested on: IL-6; assay: Serum IL-6 content by ELISA, EAE mice; details: positive control drug, dose not given
Protocol: as §2
Experimental objective: interleukin-1 (IL-1) and IL-6 are important inflammatory cytokines, and have promoting effects on inflammatory reactions. This experiment used enzyme linked immunosorbent assay (ELISA) to measure contents of IL-1 and IL-6 in serums of EAE mice model, and the effects of icariin on these contents were observed.
Experimental method: mice were anesthetized with pentobarbital sodium, blood sample was taken from abdominal aorta, stood at room temperature for 2 h, centrifuged at 3000 rpm for 20 min, and supernatant was taken, stored at −80° C. for use. The operation was performed strictly according to the steps of specification of ELISA kit. Optical density was measured with ELIASA at 450 nm. The corresponding contents of IL-1 and IL-6 were calculated with the measured OD values on standard curves.

[5] = tested on: nitric oxide (NO); assay: NO content of cerebral cortex, biochemical kit, EAE rats; details: positive control drug, dose not given
Protocol: as §1
Experimental objective: nitric-oxide synthase (NOS) catalyzes the generation of nitric oxide (NO). During inflammatory reaction, the activity of induced NOS increases, excess NO are generated and oxygen radicals are generated via oxidation, which may result in damages in nerve cells and myelin sheath. In this experiment, NOS activity and NO content were measured using biochemical kits in cerebral cortex of EAE rat model, and the effects of Epimedium flavanoids on changes thereof were observed. […]

[6] = tested on: IL-1β; assay: IL-1β of spinal cord lumbar intumescentia by immunohistochemical method, EAE rats; details: positive control drug, dose not given
Protocol: as §1
Experimental objective: interleukin 1β (IL-1β) is an important inflammatory cytokines, and has promoting effects on inflammatory reactions. This experiment used immunohistochemical method to measure the content of IL-1β in spinal cord lumbar intumescentia of EAE model group rat, and observed the effects of Epimedium flavanoids on the content.
Experimental method: rats were anesthetized with 10% chloral hydrate, fixed by perfusion of 4% paraformaldehyde, spinal cord tissue was taken for making frozen section. Incubated with IL-1β primary antibody, added with corresponding secondary antibody, third antibody, DAB developed, observed under microscope. Pictures were analyzed by Image Pro plus 5.0 software.

[7] = tested on: Brain-derived neurotrophic factor (BDNF); assay: BDNF of spinal cord lumbar intumescentia by immunohistochemical method, EAE rats; details: positive control drug, dose not given
Protocol: as §1
Experimental objective: neurotrophic factors are important substances for constituting nerve regeneration microenvironment. Brain-derived neurotrophic factor (BDNF) is an important neurotrophic factor, can promote the regeneration and plerosis of myelin sheath. In this experiment, BDNF content of spinal cord lumbar intumescentia in EAE rat model was measured by immunohistochemical method, and the effects of Epimedium flavanoids on the content was observed.
Experimental method: the rats were anesthetized with 10% chloral hydrate, fixed by perfusion of 4% paraformaldehyde, spinal cord tissues were taken for frozen section. Incubated with BDNF primary antibody, added with corresponding secondary antibody and third antibody, DAB colorated, observed under microscope, and pictures were analyzed using Image Pro plus5.0 software.

## CC(=O)OCC(=O)[C@@]1(O)CC[C@H]2[C@@H]3CCC4=CC(=O)C=C[C@]4(C)[C@H]3C(=O)C[C@@]21C [prednisone acetate]
[1]
  Inflammatory cell infiltration (HE staining score): 1.00 ± 0.29
[2]
  TNF-α content: 64.29 ± 7.52 pg/mg pro
[3]
  Myelinoclasis (LFB staining score): 0.77 ± 0.22
[4]
  IL-6 content: 0.121 ± 0.010 pg/mL
[5]
  NO content: 0.77 ± 0.01 mmol/mg protein
[6]
  IL-1β Accumulative optical density: 115.5 ± 8.6 ×10^3
  IL-1β Positive cell number: 672 ± 48
[7]
  integrated optical density of BDNF positive cell: 3.64 ± 0.23 ×10^5
  total area of BDNF positive cell: 9.43 ± 1.12 ×10^5
